Assay results: the supplement of paper PMC10307832

What was measured:
Test in all cases: relative viability (nuclei count vs DMSO), 5 days (fraction); higher = more cells survive
[1] = compound: Cc1ccc2nc(NCCN)c3ncc(C)n3c2c1 + Nc1ncn([C@H]2C[C@H](O)[C@@H](CO)O2)c(=O)n1 [Decitabine] (partner 2 µM)
Outline: (§1)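 After 5 days of treatment, lung cancer cells in 1536-well plates were fixed and stained in a single step (final 0.05% Triton X-100, 1% formaldehyde, 1 ug/ml Hoechst) and their nuclei counted on 4× images. Treatment had been applied by pin tool the day after seeding as one drug alone or as a fixed anchor-drug dose with five library-drug doses (not always all listed) in √10 steps. Relative viability is the nuclei count of treated wells divided by that of vehicle wells, and values are medians of duplicate plates.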

[2] = compound: O=C(/C=C/c1ccccc1)NC(NC(=S)Nc1cccc2cccnc12)C(Cl)(Cl)Cl [Salubrinal] + COc1cccc2cc(-c3nc([C@H]4CC[C@H](C(=O)O)CC4)n4ncnc(N)c34)[nH]c12 [OSI-027] (partner 0.5 µM)
Outline: as §1

[3] = compound: Cc1ccc2nc(NCCN)c3ncc(C)n3c2c1 + C[C@@H](Oc1cc(-c2cnn(C3CCNCC3)c2)cnc1N)c1c(Cl)ccc(F)c1Cl [Crizotinib] (partner 1 µM)
Outline: as §1

[4] = compound: Cc1ccc2nc(NCCN)c3ncc(C)n3c2c1 + COc1cccc2cc(-c3nc([C@H]4CC[C@H](C(=O)O)CC4)n4ncnc(N)c34)[nH]c12 [OSI-027] (partner 0.5 µM)
Outline: as §1

NCI-H1755
relative viability ([1]; first compound 0.04 µM): 0.716
relative viability ([1]; first compound 0.1265 µM): 0.764
relative viability ([1]; first compound 0.4 µM): 0.681
relative viability ([1]; first compound 1.265 µM): 0.7
relative viability ([1]; first compound 4 µM): 0.723
relative viability ([2]; first compound 0.08 µM): 0.748
relative viability ([2]; first compound 0.253 µM): 0.803
relative viability ([2]; first compound 0.8 µM): 0.795
relative viability ([2]; first compound 2.53 µM): 0.696
relative viability ([2]; first compound 8 µM): 0.633
relative viability ([3]; first compound 0.04 µM): 0.94
relative viability ([3]; first compound 0.1265 µM): 0.891
relative viability ([3]; first compound 0.4 µM): 0.857
relative viability ([3]; first compound 1.265 µM): 0.935
relative viability ([3]; first compound 4 µM): 0.863
relative viability ([4]; first compound 0.04 µM): 0.77
relative viability ([4]; first compound 0.1265 µM): 0.738
relative viability ([4]; first compound 0.4 µM): 0.718
relative viability ([4]; first compound 1.265 µM): 0.72
relative viability ([4]; first compound 4 µM): 0.655

HCC-78
relative viability ([1]; first compound 0.04 µM): 0.745
relative viability ([1]; first compound 0.1265 µM): 0.711
relative viability ([1]; first compound 0.4 µM): 0.735
relative viability ([1]; first compound 1.265 µM): 0.664
relative viability ([1]; first compound 4 µM): 0.617
relative viability ([2]; first compound 0.08 µM): 0.363
relative viability ([2]; first compound 0.253 µM): 0.364
relative viability ([2]; first compound 0.8 µM): 0.435
relative viability ([2]; first compound 2.53 µM): 0.362
relative viability ([2]; first compound 8 µM): 0.361
relative viability ([3]; first compound 0.04 µM): 0.37
relative viability ([3]; first compound 0.1265 µM): 0.327
relative viability ([3]; first compound 0.4 µM): 0.328
relative viability ([3]; first compound 1.265 µM): 0.332
relative viability ([3]; first compound 4 µM): 0.334
relative viability ([4]; first compound 0.04 µM): 0.417
relative viability ([4]; first compound 0.1265 µM): 0.421
relative viability ([4]; first compound 0.4 µM): 0.371
relative viability ([4]; first compound 1.265 µM): 0.341
relative viability ([4]; first compound 4 µM): 0.337

NCI-H322M
relative viability ([1]; first compound 0.04 µM): 0.715
relative viability ([1]; first compound 0.1265 µM): 0.715
relative viability ([1]; first compound 0.4 µM): 0.707
relative viability ([1]; first compound 1.265 µM): 0.748
relative viability ([1]; first compound 4 µM): 0.812
relative viability ([2]; first compound 0.08 µM): 0.471
relative viability ([2]; first compound 0.253 µM): 0.536
relative viability ([2]; first compound 0.8 µM): 0.565
relative viability ([2]; first compound 2.53 µM): 0.57
relative viability ([2]; first compound 8 µM): 0.471
relative viability ([3]; first compound 0.04 µM): 1.02
relative viability ([3]; first compound 0.1265 µM): 0.882
relative viability ([3]; first compound 0.4 µM): 0.832
relative viability ([3]; first compound 1.265 µM): 0.944
relative viability ([3]; first compound 4 µM): 0.876
relative viability ([4]; first compound 0.04 µM): 0.641
relative viability ([4]; first compound 0.1265 µM): 0.544
relative viability ([4]; first compound 0.4 µM): 0.481
relative viability ([4]; first compound 1.265 µM): 0.568
relative viability ([4]; first compound 4 µM): 0.526

NCI-H3122
relative viability ([1]; first compound 0.04 µM): 0.4
relative viability ([1]; first compound 0.1265 µM): 0.449
relative viability ([1]; first compound 0.4 µM): 0.377
relative viability ([1]; first compound 1.265 µM): 0.541
relative viability ([1]; first compound 4 µM): 0.421
relative viability ([2]; first compound 0.08 µM): 1.21
relative viability ([2]; first compound 0.253 µM): 0.885
relative viability ([2]; first compound 0.8 µM): 1.32
relative viability ([2]; first compound 2.53 µM): 1.03
relative viability ([2]; first compound 8 µM): 1.07
relative viability ([3]; first compound 0.04 µM): 0.291
relative viability ([3]; first compound 0.1265 µM): 0.304
relative viability ([3]; first compound 0.4 µM): 0.293
relative viability ([3]; first compound 1.265 µM): 0.286
relative viability ([3]; first compound 4 µM): 0.318
relative viability ([4]; first compound 0.04 µM): 1.06
relative viability ([4]; first compound 0.1265 µM): 0.953
relative viability ([4]; first compound 0.4 µM): 0.858
relative viability ([4]; first compound 1.265 µM): 0.828
relative viability ([4]; first compound 4 µM): 0.678

COR-L23
relative viability ([1]; first compound 0.04 µM): 0.455
relative viability ([1]; first compound 0.1265 µM): 0.405
relative viability ([1]; first compound 0.4 µM): 0.406
relative viability ([1]; first compound 1.265 µM): 0.488
relative viability ([1]; first compound 4 µM): 0.411
relative viability ([2]; first compound 0.08 µM): 0.868
relative viability ([2]; first compound 0.253 µM): 0.547
relative viability ([2]; first compound 0.8 µM): 1.1
relative viability ([2]; first compound 2.53 µM): 0.794
relative viability ([2]; first compound 8 µM): 0.71
relative viability ([3]; first compound 0.04 µM): 0.737
relative viability ([3]; first compound 0.1265 µM): 0.608
relative viability ([3]; first compound 0.4 µM): 0.628
relative viability ([3]; first compound 1.265 µM): 0.572
relative viability ([3]; first compound 4 µM): 0.541
relative viability ([4]; first compound 0.04 µM): 0.911
relative viability ([4]; first compound 0.1265 µM): 0.764
relative viability ([4]; first compound 0.4 µM): 0.777
relative viability ([4]; first compound 1.265 µM): 0.729
relative viability ([4]; first compound 4 µM): 0.61

NCI-H2087
relative viability ([1]; first compound 0.04 µM): 0.308
relative viability ([1]; first compound 0.1265 µM): 0.362
relative viability ([1]; first compound 0.4 µM): 0.249
relative viability ([1]; first compound 1.265 µM): 0.285
relative viability ([1]; first compound 4 µM): 0.299
relative viability ([2]; first compound 0.08 µM): 0.517
relative viability ([2]; first compound 0.253 µM): 0.481
relative viability ([2]; first compound 0.8 µM): 0.626
relative viability ([2]; first compound 2.53 µM): 0.515
relative viability ([2]; first compound 8 µM): 0.563
relative viability ([3]; first compound 0.04 µM): 1.1
relative viability ([3]; first compound 0.1265 µM): 0.926
relative viability ([3]; first compound 0.4 µM): 0.782
relative viability ([3]; first compound 1.265 µM): 0.932
relative viability ([3]; first compound 4 µM): 0.727
relative viability ([4]; first compound 0.04 µM): 0.648
relative viability ([4]; first compound 0.1265 µM): 0.595
relative viability ([4]; first compound 0.4 µM): 0.478
relative viability ([4]; first compound 1.265 µM): 0.703
relative viability ([4]; first compound 4 µM): 0.501

LC-2-ad
relative viability ([1]; first compound 0.04 µM): 0.728
relative viability ([1]; first compound 0.1265 µM): 0.728
relative viability ([1]; first compound 0.4 µM): 0.705
relative viability ([1]; first compound 1.265 µM): 0.712
relative viability ([1]; first compound 4 µM): 0.768
relative viability ([2]; first compound 0.08 µM): 0.91
relative viability ([2]; first compound 0.253 µM): 0.797
relative viability ([2]; first compound 0.8 µM): 1.03
relative viability ([2]; first compound 2.53 µM): 0.818
relative viability ([2]; first compound 8 µM): 0.782
relative viability ([3]; first compound 0.04 µM): 0.467
relative viability ([3]; first compound 0.1265 µM): 0.448
relative viability ([3]; first compound 0.4 µM): 0.44
relative viability ([3]; first compound 1.265 µM): 0.406
relative viability ([3]; first compound 4 µM): 0.476
relative viability ([4]; first compound 0.04 µM): 0.866
relative viability ([4]; first compound 0.1265 µM): 0.825
relative viability ([4]; first compound 0.4 µM): 0.789
relative viability ([4]; first compound 1.265 µM): 0.889
relative viability ([4]; first compound 4 µM): 0.784

NCI-H1915
relative viability ([1]; first compound 0.04 µM): 0.265
relative viability ([1]; first compound 0.1265 µM): 0.248
relative viability ([1]; first compound 0.4 µM): 0.267
relative viability ([1]; first compound 1.265 µM): 0.253
relative viability ([1]; first compound 4 µM): 0.238
relative viability ([2]; first compound 0.08 µM): 0.628
relative viability ([2]; first compound 0.253 µM): 0.609
relative viability ([2]; first compound 0.8 µM): 0.716
relative viability ([2]; first compound 2.53 µM): 0.682
relative viability ([2]; first compound 8 µM): 0.637
relative viability ([3]; first compound 0.04 µM): 0.823
relative viability ([3]; first compound 0.4 µM): 0.816
relative viability ([3]; first compound 1.265 µM): 0.868
relative viability ([3]; first compound 4 µM): 0.914
relative viability ([4]; first compound 0.04 µM): 0.641
relative viability ([4]; first compound 0.1265 µM): 0.605
relative viability ([4]; first compound 1.265 µM): 0.696
relative viability ([4]; first compound 4 µM): 0.594
